This note sets out measurements from ChEMBL document CHEMBL6121021, “Design and Synthesis of Topoisomerases-Histone Deacetylase Dual Targeted Quinoline-Bridged Hydroxamates as Anticancer Agents” (J Med Chem, 2025).

Calls of active or inactive are those of the source. The rule behind the calls is not given here. A value given as a limit tells only on which side of the number the result lay.

The target in experiment [1] is T1, Protein deacetylase HDAC6 (Homo sapiens, UniProt Q9UBN7).
T1 sequence (Q9UBN7 whole entry): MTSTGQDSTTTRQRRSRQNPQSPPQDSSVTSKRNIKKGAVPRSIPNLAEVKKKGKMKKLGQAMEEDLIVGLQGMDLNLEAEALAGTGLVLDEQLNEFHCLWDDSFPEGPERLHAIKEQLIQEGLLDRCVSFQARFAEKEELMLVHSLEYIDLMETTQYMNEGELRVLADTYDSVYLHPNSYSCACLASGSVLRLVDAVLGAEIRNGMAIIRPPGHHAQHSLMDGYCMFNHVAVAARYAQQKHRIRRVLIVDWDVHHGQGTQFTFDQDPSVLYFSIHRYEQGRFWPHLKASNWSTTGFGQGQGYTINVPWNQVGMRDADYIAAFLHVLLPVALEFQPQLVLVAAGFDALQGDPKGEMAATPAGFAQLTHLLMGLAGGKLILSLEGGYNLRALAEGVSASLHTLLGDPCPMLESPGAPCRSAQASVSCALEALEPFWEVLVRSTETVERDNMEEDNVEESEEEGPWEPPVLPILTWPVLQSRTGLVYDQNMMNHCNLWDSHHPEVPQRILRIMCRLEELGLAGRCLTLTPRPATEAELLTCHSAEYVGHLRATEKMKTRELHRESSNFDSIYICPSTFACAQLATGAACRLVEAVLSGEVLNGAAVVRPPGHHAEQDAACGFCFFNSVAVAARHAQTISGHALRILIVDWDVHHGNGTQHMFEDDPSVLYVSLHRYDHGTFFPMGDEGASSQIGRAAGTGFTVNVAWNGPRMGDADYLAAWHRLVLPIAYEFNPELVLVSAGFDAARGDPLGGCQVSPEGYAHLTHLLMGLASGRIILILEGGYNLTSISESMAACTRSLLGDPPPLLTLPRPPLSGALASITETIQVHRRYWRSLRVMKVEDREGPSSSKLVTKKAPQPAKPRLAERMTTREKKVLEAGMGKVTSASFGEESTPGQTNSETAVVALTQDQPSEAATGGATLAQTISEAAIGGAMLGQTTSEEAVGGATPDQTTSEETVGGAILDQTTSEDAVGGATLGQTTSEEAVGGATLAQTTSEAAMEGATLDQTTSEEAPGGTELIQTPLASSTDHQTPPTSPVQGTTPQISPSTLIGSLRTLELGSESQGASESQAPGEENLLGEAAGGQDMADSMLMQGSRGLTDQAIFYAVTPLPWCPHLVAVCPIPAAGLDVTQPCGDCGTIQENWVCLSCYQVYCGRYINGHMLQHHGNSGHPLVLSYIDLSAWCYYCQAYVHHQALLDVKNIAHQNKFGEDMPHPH
The experiment can be described thus: Inhibition of HDAC6 (unknown origin).

The target of experiment [2] is T2, Histone deacetylase 1 (Homo sapiens, UniProt Q13547). The experiment can be described thus: Inhibition of HDAC1 (unknown origin).
T2 sequence (Q13547 whole entry): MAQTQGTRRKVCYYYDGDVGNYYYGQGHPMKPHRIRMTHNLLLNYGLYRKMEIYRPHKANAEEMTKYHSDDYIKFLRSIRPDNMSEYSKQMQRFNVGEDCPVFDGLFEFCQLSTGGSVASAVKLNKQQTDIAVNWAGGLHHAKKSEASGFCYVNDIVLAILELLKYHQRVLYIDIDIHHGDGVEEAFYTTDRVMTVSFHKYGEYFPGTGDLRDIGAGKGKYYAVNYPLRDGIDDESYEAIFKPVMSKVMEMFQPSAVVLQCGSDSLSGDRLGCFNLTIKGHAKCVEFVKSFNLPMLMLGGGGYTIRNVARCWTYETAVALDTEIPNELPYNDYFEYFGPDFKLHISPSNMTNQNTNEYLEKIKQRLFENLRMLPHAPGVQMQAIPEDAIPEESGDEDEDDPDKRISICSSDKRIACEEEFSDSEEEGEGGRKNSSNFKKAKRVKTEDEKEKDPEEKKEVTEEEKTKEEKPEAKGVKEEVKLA
Another experiment deals with MDA-MB-231. The experiment can be described thus: cells. The note with it: Homo sapiens, MDA-MB-231, 48 h. The class given is functional, cell-based.
The next experiment relates to MCF7. The experiment can be described thus: cells. It counts as functional, cell-based. To be noted: Homo sapiens, MCF7, 48 h.
Experiment [3] deals with T2, Histone deacetylase 1. The experiment can be described thus: Inhibition of HDAC1 extracted from human A549 nucleus incubated for 1 hr by fluorometric assay. The class given is cell-free.
Another experiment deals with Supercoiled DNA. The experiment can be described thus: Binding affinity to supercoiled DNA (unknown origin) assessed as DNA intercalation measured after 30 mins by gel electrophoresis. The class given is nucleic-acid assay.
For another experiment, the system named is NCI-H1299. The experiment can be described thus: cells. The note with it: Homo sapiens, NCI-H1299, 48 h. It counts as functional, cell-based.
In experiment [4] the target is DNA topoisomerase 2-alpha (Homo sapiens, UniProt P11388). The experiment can be described thus: Inhibition of human Topo II-alpha-mediated decatenation of kDNA at 100 uM incubated for 30 mins.
Chain of DNA topoisomerase 2-alpha (P11388 whole entry): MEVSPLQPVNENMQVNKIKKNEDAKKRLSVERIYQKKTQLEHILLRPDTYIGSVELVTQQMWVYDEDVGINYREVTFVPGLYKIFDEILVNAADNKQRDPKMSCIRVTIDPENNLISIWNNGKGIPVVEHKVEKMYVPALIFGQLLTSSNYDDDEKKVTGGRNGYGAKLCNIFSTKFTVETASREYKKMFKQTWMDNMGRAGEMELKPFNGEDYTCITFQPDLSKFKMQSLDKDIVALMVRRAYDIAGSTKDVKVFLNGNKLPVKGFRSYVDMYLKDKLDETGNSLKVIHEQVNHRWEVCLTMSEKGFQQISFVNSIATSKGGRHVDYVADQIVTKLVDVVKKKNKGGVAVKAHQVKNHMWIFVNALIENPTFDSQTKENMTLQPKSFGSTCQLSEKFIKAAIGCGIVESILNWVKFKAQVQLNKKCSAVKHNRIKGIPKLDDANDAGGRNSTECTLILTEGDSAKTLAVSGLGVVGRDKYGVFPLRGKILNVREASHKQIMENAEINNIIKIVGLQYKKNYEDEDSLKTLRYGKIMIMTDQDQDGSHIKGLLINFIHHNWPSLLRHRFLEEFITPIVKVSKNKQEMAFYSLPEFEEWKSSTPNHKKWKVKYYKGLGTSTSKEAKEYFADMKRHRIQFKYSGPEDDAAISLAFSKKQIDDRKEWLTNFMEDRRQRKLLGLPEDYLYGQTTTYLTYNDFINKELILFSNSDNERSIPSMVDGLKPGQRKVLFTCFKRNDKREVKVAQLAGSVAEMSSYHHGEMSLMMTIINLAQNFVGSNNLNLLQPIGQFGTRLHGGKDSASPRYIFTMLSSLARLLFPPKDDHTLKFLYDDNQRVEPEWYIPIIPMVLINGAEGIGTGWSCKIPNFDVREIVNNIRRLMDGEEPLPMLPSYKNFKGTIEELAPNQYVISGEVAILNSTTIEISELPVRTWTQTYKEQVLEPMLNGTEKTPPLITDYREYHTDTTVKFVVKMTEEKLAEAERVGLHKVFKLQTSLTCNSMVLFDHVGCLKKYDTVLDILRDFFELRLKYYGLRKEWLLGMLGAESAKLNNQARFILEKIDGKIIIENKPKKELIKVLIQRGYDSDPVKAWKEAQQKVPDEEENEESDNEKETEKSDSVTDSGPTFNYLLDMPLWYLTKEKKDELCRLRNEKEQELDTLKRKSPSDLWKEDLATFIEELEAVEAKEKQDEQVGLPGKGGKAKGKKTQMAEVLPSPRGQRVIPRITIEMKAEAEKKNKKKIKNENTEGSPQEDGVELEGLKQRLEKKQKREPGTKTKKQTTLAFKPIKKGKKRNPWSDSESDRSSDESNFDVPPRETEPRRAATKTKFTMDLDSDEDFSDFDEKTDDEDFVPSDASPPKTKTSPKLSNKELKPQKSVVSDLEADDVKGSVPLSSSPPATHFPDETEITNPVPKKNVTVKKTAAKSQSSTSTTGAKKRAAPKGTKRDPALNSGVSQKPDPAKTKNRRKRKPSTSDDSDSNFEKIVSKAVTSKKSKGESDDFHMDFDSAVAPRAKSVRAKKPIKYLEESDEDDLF
The next experiment has as its system A549. The experiment can be described thus: cells. The note with it: Homo sapiens, A549, 48 h.
In a further experiment the test system is HT-29. The experiment can be described thus: cells. It counts as functional, cell-based. The note with it: Homo sapiens, HT-29, 48 h.
For experiment [5], the target named is T1, Protein deacetylase HDAC6. The experiment can be described thus: Inhibition of HDAC6 (unknown origin) using acetylated-peptide substrate by fluorometric assay.
In a further experiment the target is T3, Histone deacetylase 8 (Homo sapiens, UniProt Q9BY41).
T3 sequence (Q9BY41 whole entry): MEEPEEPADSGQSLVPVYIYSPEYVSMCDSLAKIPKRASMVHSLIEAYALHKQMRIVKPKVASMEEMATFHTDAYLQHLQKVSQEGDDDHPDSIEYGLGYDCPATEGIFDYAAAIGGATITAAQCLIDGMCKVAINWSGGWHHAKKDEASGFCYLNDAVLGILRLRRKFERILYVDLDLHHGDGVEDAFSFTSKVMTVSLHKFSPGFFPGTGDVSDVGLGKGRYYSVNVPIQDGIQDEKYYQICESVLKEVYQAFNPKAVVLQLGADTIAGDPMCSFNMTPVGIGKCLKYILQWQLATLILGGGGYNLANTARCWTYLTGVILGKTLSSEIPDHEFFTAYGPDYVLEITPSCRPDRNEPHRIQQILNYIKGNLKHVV
The experiment can be described thus: Inhibition of HDAC8 (unknown origin) by fluorometric assay.

Consider `CN1c2ccc(NCc3ccc(-c4noc(CC(=O)NO)n4)cc3)cc2C(O)N2CCc3c([nH]c4ccc(O)cc34)C12` (stereo unspecified), for which the IC50 worked out at 0.013 µM in [1] and 0.024 µM against Histone deacetylase 1 [2].
Turning to `COc1cc(-c2ccc3cc(OCCCCCC(=O)NO)ccc3n2)cc(OC)c1OC`, the IC50 amounted to 6.24 µM in the experiment with MDA-MB-231; 5.22 µM with MCF7; 0.0441 µM at Histone deacetylase 1 [3]; 3.23 µM in the experiment with NCI-H1299; 1.85 µM in the experiment on A549; 1.9 µM with HT-29. For the same compound, the half-maximal inhibitory concentration (IC50) (in [5]; at Histone deacetylase 8) was over 0.5 µM in each case. Moreover, in the experiment with Supercoiled DNA, the outcome was inactive. Besides, the inhibition result in [4] was “Active”.
Regarding `COc1cc(-c2ccc3cc(OCCCCCCC(=O)NO)ccc3n2)cc(OC)c1OC`, the IC50 with MDA-MB-231 stood at 5.87 µM; in the experiment on MCF7, 4.66 µM; against Histone deacetylase 1 [3] it was 0.0698 µM; in the experiment with NCI-H1299, 4.81 µM; with A549, 3.75 µM; with HT-29 it was 4.97 µM. The IC50 was 0.243 µM in experiment [5] and over 0.5 µM at Histone deacetylase 8. In the experiment with Supercoiled DNA, the result was inactive. Besides, the inhibition result in [4] was “Active”.
As to `CC[C@@]1(O)C(=O)OCc2c1cc1n(c2=O)Cc2c-1nc1ccccc1c2/C=N\OCCCCCCC(=O)NO`, the IC50 was determined as 0.00522 µM in experiment [1] and 0.00526 µM at Histone deacetylase 1 [2].
`O=C(CCCCCCOc1ccc(-c2ccc3ccccc3n2)cc1)NO`: the IC50 in the experiment with MDA-MB-231 amounted to 3.81 µM; with MCF7, 4.82 µM; at Histone deacetylase 1 [3], 0.0665 µM; in the experiment on NCI-H1299, 2.46 µM; with A549, 0.853 µM; in the experiment with HT-29, 3.45 µM. The IC50 in [5] was 0.276 µM; against Histone deacetylase 8, over 0.5 µM. Further, the result in the experiment on Supercoiled DNA was inactive. Also, the inhibition result in experiment [4] is on record as “Active; Observed As More Active Than Etoposide”.
In the case of `O=C(CCCCCn1cc(-c2ccc(Nc3c4ccccc4nc4ccccc34)cc2)nn1)NO`, the IC50 in experiment [1] is 0.0029 µM; against Histone deacetylase 1 [2], 0.0039 µM.
Take `O=C(CCCCCCOc1ccc2nc(-c3ccccc3)ccc2c1)NO`: the half-inhibitory concentration (IC50) is 8.93 µM in the experiment with MDA-MB-231; 9.38 µM with MCF7; 0.0474 µM against Histone deacetylase 1 [3]; 4.25 µM with NCI-H1299; 3.95 µM in the experiment on A549; 8.34 µM with HT-29. The IC50 (in experiment [5]; against Histone deacetylase 8) was over 0.5 µM in each case. Besides, the result in the experiment with Supercoiled DNA was inactive. The inhibition entry in experiment [4] is on record as “Active; Observed As More Active Than Etoposide”.
